Reference: US8748601B2, “Selective serine/threonine kinase inhibitors” (The Regents of the University of California, priority 2003, dated 2014)
One block for each compound: values may come before it.

How the values were obtained:
[1] = tested on: animal carcinoma model; details: compared with reversible quinazoline inhibitors; cited from earlier work
[2] = tested on: NIH3T3 cells expressing wt v-Src; test: Reversion of transformed morphology in cells expressing wt v-Src; assay type: cell-based; details: 1 μM, 16 h
Excerpt: (§1) Overexpression of v-Src in NIH3T3 fibroblasts causes morphological transformation. Nontransformed NIH3T3 cells have a flat morphology, characterized by long bundles of filamentous actin (“stress fibers”) that can be visualized by fluorescence microscopy. In contrast, NIH3T3 cells overexpressing wt v-Src or v-Src-es1 have a disorganized actin cytoskeleton that results in a round morphology. […] Under the same conditions, cells expressing wt v-Src are not affected by cmk 4 and maintain a round morphology (FIG. 8A). The effects of cmk 4 on cell morphology were quantified by counting 100-200 cells under each treatment condition for both wt v-Src and v-Src-es1. Approximately 80% of the cells expressing v-Src-es1 regain a flattened morphology upon treatment with 1 μM cmk 4, whereas less than 2% of cells expressing wt v-Src have actin stress fibers (FIG. 8B).

[3] = tested on: v-Src-es1; test: Global phosphotyrosine levels in NIH3T3 cells expressing v-Src-es1; assay type: cell-based
Excerpt: (§2) We also investigated whether cmk 4 could block the function of v-Src-es1 in mammalian cells by monitoring global phosphotyrosine levels in cells expressing either wt v-Src or v-Src-es1.

[4] = tested on: wt v-Src; test: Global phosphotyrosine levels in NIH3T3 cells expressing wt v-Src; assay type: cell-based
Excerpt: as §2

[5] = target: T1, Rsk2 CTD (Homo sapiens, UniProt P51812); test: Rsk2 CTD in vitro kinase assay, wild type; assay type: biochemical
T1 construct: We tested the halomethylketones against the Rsk2 CTD by adapting an in vitro kinase assay; made in house
Excerpt: (§3) We tested the halomethylketones against the Rsk2 CTD by adapting an in vitro kinase assay developed by Chrestensen and Sturgill, J, Biol. Chem. 277:27733 (2002).

[6] = target: wt Fyn (Homo sapiens, UniProt P06241); test: wt Fyn kinase activity in vitro; details: 30 nM
[7] = tested on: NIH3T3 cells expressing v-Src-es1; test: Reversion of transformed morphology in cells expressing v-Src-es1; assay type: cell-based; details: 1 μM, 16 h
Excerpt: as §1

[8] = target: T2, V281C v-Src (v-Src-es1) (UniProt P00524, V281C, species not given); test: Covalent labeling by biotin-cmk in NIH3T3 fibroblasts expressing v-Src-es1; assay type: cell-based
T2 construct: other: pretreatment of intact cells; lysates treated with biotin; Labeling of v-Src-es1 by biotin-cmk after pretreatment; other: pretreatment of intact cells with 1 μM
Excerpt: (§4) To test whether cmk 4 could covalently label and inhibit Src kinases in vivo, we generated NIH3T3 fibroblast cell lines that stably overexpress either a wt v-Src allele or an electrophile-sensitive mutant, V281C v-Src (v-Src-es1). v-Src is constitutively active, and as a result of its expression in these cells, there is a substantial increase in phosphotyrosine levels. […] To test whether cmk 4 forms an irreversible, covalent bond with V281C v-Src, we conjugated biotin to the hydroxypropyl substituent. This point of attachment was chosen based on the model of cmk 4 bound to Hck in which the hydroxypropyl substituent is pointing out into solution.
(§5) NIH3T3 fibroblasts expressing either v-Src-es1 or v-Src were pretreated with increasing concentrations of cmk 4. Whole cells lysates were then prepared and treated with biotin-cmk (2 μM).

[9] = tested on: Rsk2; test: Labeling by biotin-1 / bodipy-1 in Xenopus egg cytosol and competition by unlabeled compound; assay type: binding; details: for Labeling of 90 kD protein by bodipy-1 after pretreatment: pretreatment with 1 μM
Protocol: To test whether compounds 1 and 2 (Formula IA, chloromethyl ketone and methyl enoate respectively) bind selectively and irreversibly to Rsk2, compound 1 was labeled with biotin. Xenopus egg cytosol was treated with 1 μM biotin-1. A major biotinylated 90 kD protein was detected by immunoblot analysis with streptavidin-HRP. Labeling of p90 with biotin-1 was abolished by pretreatment of the cytosol 1 μM of unlabeled 1. Thus, p90 is completely saturated by 1 at a concentration of 1 μM.
Labeling was abolished by pretreatment with 1 μM of 1 or 2.

[10] = target: Val285Cys Fyn (Homo sapiens, UniProt P06241, V285C); test: Inactivation of engineered Val285Cys Fyn; assay type: biochemical
[11] = tested on: Erk; test: Erk phosphorylation in Swiss 3T3 cells (Western blot); assay type: cell-based; details: 5 μM, 1 hour, growth factors 10 min
Protocol: (§6) Enoate 2 blocks Rsk autophosphorylation of Ser381, which is catalyzed by its cysteine-containing C-terminal kinase domain. […] Swiss 3T3 cells were serum starved for 24 hours and treated with 5 μM enoate or 0.1% DMSO (control) for 1 hour. The cells were then stimulated with growth factors for 10 min. and lysed with 1×SDS-PAGE sample buffer. Proteins were separated by SDS-PAGE and transferred to nitrocellulose membranes for Western blot analysis. Phosphorylation-specific antibodies against Rsk and Erk were purchased from Cell Signaling. Antibodies against nonphosphorylated Rsk and Erk were purchased from Santa Cruz Biotech and Cell Signaling, respectively. (FIG. 4.)

[12] = tested on: Rsk; test: Rsk autophosphorylation of Ser381 in Swiss 3T3 cells (Western blot); assay type: cell-based; details: 5 μM, 1 hour, growth factors 10 min
Protocol: as §6

[13] = target: T3, Rsk2 CTD Thr493Met (Homo sapiens, UniProt P51812, T493M); test: Rsk2 CTD in vitro kinase assay, Thr493Met mutant; assay type: biochemical
T3 construct: we expressed and purified two CTD mutants, Cys436Val and Thr493Met; made in house
Excerpt: as §3

[14] = target: T4, Rsk2 CTD Cys436Val (Homo sapiens, UniProt P51812, C436V); test: Rsk2 CTD in vitro kinase assay, Cys436Val mutant; assay type: biochemical
T4 construct: we expressed and purified two CTD mutants, Cys436Val and Thr493Met; made in house
Excerpt: as §3

[15] = target: T5, Rsk1 (Homo sapiens, UniProt Q15418); test: Suppression of labeling by biotinylated fmk in human epithelial cell lysate, Rsk1; assay type: binding; details: pretreatment with unlabeled compound
T5 construct: a crude lysate prepared from human epithelial cells; endogenous in cells
Excerpt: A major concern with any pharmacological agent is its selectivity, not only among related family members, but among all other coexpressed proteins. To determine the global kinetic selectivity of fmk 5, we added a biotinylated derivative to a crude lysate prepared from human epithelial cells. Only two proteins in the lysate were labeled. […] Affinity purified antibodies raised against a Rsk1 peptide specifically immunoprecipitated the lower band, whereas a Rsk2 monoclonal antibody was specific for the upper band. Both proteins remained in the supernatant when a control rabbit IgG was used.

[16] = Chemical stability; assay type: physicochemical; details: compared with cmk 4
[17] = target: Rsk2 (Homo sapiens, UniProt P51812); test: Suppression of labeling by biotinylated fmk in human epithelial cell lysate, Rsk2; assay type: binding; details: pretreatment with unlabeled compound
Excerpt: A major concern with any pharmacological agent is its selectivity, not only among related family members, but among all other coexpressed proteins.

[18] = target: Rsk2 CTD (Chlorocebus sabaeus, UniProt A0A0D9RPY4); test: EGF-stimulated Ser386 phosphorylation in COS-7 cells; assay type: cell-based; details: read-out: Reduction of Ser386 phosphorylation
Excerpt: (§7) The only known Rsk2 CTD substrate is an autophosphorylation site, Ser386, in the linker region connecting the NTD and CTD. Phosphorylation of Ser386 creates a docking site for another kinase, phosphoinositide-dependent kinase 1 (PDK1), which phosphorylates and activates the NTD. […] The signaling pathway between EGF and Erk1/2 involves at least three protein kinases (EGFR, Raf, and MEK), two of which (EGFR and Raf) have threonine gatekeepers and cysteines in their ATP binding pockets (albeit at different locations relative to Rsk2 Cys436).

[19] = tested on: Erk1/2; test: EGF-stimulated Erk1/2 phosphorylation (Thr202, Tyr204) in COS-7 cells; assay type: cell-based; details: 10 μM
Excerpt: as §7

[20] = tested on: wt v-Src; test: Covalent labeling by biotin-cmk in NIH3T3 fibroblasts expressing wt v-Src; assay type: cell-based; details: biotin-cmk 2 μM, whole cell lysates
Excerpt: as §4, §5

[21] = tested on: V281C v-Src (v-Src-es1); test: Covalent labeling by biotin-cmk in NIH3T3 fibroblasts expressing v-Src-es1; assay type: cell-based; details: biotin-cmk 2 μM, whole cell lysates
Excerpt: as §4, §5

SMILES: C=CC(=O)Nc1ccc2ncnc(Nc3cccc(Br)c3)c2c1 [PD 168393]
Efficacy in an animal carcinoma model [1]: far superior to reversible quinazoline inhibitors

SMILES: Cc1ccc(-c2c(C(=O)CCl)n(CCCO)c3ncnc(N)c23)cc1 [cmk 4]
Cells expressing wt v-Src that have actin stress fibers [2]: less than 2% | Morphology of cells expressing wt v-Src [2]: not affected | Detectable phosphotyrosine in cells overexpressing v-Src-es1 ([3]; 1 μM): near-complete reduction | Tyrosine phosphorylation in cells overexpressing v-Src-es1 ([3]; increasing concentrations): dose-dependent decrease | Function of mutant v-Src in mammalian cells ([3]; summary statement): irreversibly blocked the function | Phosphotyrosine in cells overexpressing wt v-Src ([4]; 1 μM): no apparent effect | Effect on wt v-Src in mammalian cells ([4]; summary statement): no effect | Inhibition of kinase activity of Rsk2 CTD [5]: potently inhibited | Effect on wild-type (WT) Fyn [6]: no effect | Cells expressing v-Src-es1 that regain a flattened morphology [7]: Approximately 80% | Transformed morphology of cells expressing v-Src-es1 ([7]; FITC-phallodin staining): caused reversion of the transformed morphology | Labeling of v-Src-es1 by biotin-cmk after pretreatment ([8]; pretreatment of intact cells with 1 μM): abolished | IC50 ([8]; read-out: IC50 for blocking labeling of v-Src-es1 by biotin-cmk, pretreatment of intact cells, lysates treated with biotin-cmk 2 μM): < 100 nM | Concentration at which p90 is completely saturated ([9]; Xenopus egg cytosol): 1 µM | Labeling of p90 with biotin-1 after pretreatment with unlabeled compound ([9]; pretreatment of the cytosol 1 μM, streptavidin-HRP immunoblot): abolished | Labeling of 90 kD protein by bodipy-1 after pretreatment [9]: abolished | Fold more potent than fmk 5 toward Val285Cys Fyn [10]: 100 fold | Inactivation of engineered Fyn with cysteine in place of Val285 ([10]; 30 nM): rapidly inactivated | Time to inactivate Val285Cys Fyn ([10]; 100 nM, 1 mM ATP): less than 5 min

SMILES: Cc1ccc(-c2c(C(=O)CCl)n(CCCOC(=O)NCCCCNC(=O)CCCCC3SCC4NC(=O)NC43)c3ncnc(N)c23)cc1 (stereo not drawn) [biotin-cmk]
Covalent labeling of wt v-Src [20]: absence of covalent labeling | Covalent labeling of v-Src-es1 [21]: covalently targeted v-Src-es1

More lines, main results first:

Labeling of 90 kD protein by bodipy-1 after pretreatment [9]: abolished
SMILES: COC(=O)/C=C/c1c(-c2ccc(C)cc2)c2c(N)ncnc2n1CCCO [Compound 2]
Erk phosphorylation [11]: does not block | Rsk autophosphorylation of Ser381 [12]: blocks

IC50 ([13]; Rsk2 CTD mutant, read-out: IC50 values, T439M): > 30000 nM | Fold weaker than fmk 5 toward WT Rsk2 [5]: 80 fold | IC50 ([5]; Rsk2 CTD WT, read-out: IC50 values, WT): 1200 ± 80 nM | Potency relative to fmk 5 against the Cys436Val mutant [14]: much more potent than fmk 5 | IC50 ([14]; Rsk2 CTD C436V): 430 ± 140 nM
SMILES: Cc1ccc(-c2cn(CCCO)c3ncnc(N)c23)cc1 [scaffold A]

Concentration for complete saturation of Rsk1 [15]: 0.3 µM | Chemical stability [16]: greater chemical stability | Inhibition of kinase activity of Rsk2 CTD [5]: potently inhibited | Half-time of inactivation of Rsk2 CTD ([5]; 1 μM, 1 mM ATP): less than 10 min | Concentration for complete saturation of Rsk2 [17]: 1 µM | inhibition at 3 µM [18]: 95%
SMILES: Cc1ccc(-c2c(C(=O)CF)n(CCCO)c3ncnc(N)c23)cc1 [fmk 5]
Inhibition and covalent modification of Thr493Met mutant [13]: resistant to inhibition and covalent modification | Inhibition and covalent modification of Cys436Val mutant [14]: resistant to inhibition and covalent modification | EGF-stimulated phosphorylation of Erk1/2 Thr202 and Tyr204 [19]: no effect
